Source: patent US20250353891A1 (MEDIMMUNE LIMITED, priority 2022, published 2025)
Read-outs that look alike come from different tables or passages of the source. Starred links: 1 amine or outer side, 2 acyl side, 3 side chain; linkers in the order of their positions; H or OH if unused. Non-standard residues stand in square brackets, D forms with d. Residues, ends and D or L forms follow the SMILES beside them. Groups on a side chain read outwards from the residue. *: point of attachment. X1 = CC(C)(CCNC(=N)N)[C@H](N[*:1])C(=O)[*:2]; C20 diacid = O=C(O)CCCCCCCCCCCCCCCCCCC(=O)*; C18 diacid = O=C(O)CCCCCCCCCCCCCCCCC(=O)*; γGlu = O=C(O)[C@H](CCC(=O)[*:2])N[*:1]; Stearoyl = CCCCCCCCCCCCCCCCCC(=O)*; αMeF = C[C@](N)(Cc1ccccc1)C(=O)O; PEG2 = NCCOCCOCCC(=O)O; AEEA = NCCOCCOCC(=O)O; Aib = CC(C)(N)C(=O)O

Experiments:
[1] = biological target: human glucagon receptor (hGCGR) (Homo sapiens, UniProt P47871); experiment: cAMP production (HTRF) in CHO cells expressing hGCGR; type: cell-based; set-up: expressed in transfected cells; details: geometric mean
human glucagon receptor (hGCGR), sequence (P47871 26-477): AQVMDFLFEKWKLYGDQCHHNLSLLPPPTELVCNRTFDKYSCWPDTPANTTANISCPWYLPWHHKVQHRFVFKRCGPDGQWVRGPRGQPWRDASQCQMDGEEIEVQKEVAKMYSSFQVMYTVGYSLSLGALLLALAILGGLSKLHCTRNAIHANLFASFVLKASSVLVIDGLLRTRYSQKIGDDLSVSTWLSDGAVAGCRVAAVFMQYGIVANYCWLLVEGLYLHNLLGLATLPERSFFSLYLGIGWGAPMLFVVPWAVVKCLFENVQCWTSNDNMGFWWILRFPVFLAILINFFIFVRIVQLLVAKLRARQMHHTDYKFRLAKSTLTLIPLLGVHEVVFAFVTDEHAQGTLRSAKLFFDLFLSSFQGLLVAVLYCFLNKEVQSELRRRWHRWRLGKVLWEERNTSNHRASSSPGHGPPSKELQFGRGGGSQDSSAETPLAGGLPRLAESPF
Procedure: (§1) Cells were re-suspended in assay buffer at a batch-dependent optimized concentration (typically hGLP-1R cells at 1×10^5 cells/mL, hGCGR cells at 2×10^5 cells/mL).
(§2) Cells were added to the assay plate using a multidrop dispenser and incubated at room temperature for 30 minutes before measuring the cAMP level using a cAMP dynamic 2 homogeneous time resolved Fluorescence (HTRF) kit (Cisbio Bioassays #62AM4PEJ) following the two-step protocol as per manufacturer's recommendations. In brief, anti-cAMP cryptate (donor fluorophore) and cAMP-d2 (acceptor fluorophore) were made up separately by diluting each 1 in 20 in conjugate and lysis buffer provided in the kit. Anti-CAMP cryptate was added to all wells of the assay plate, followed by cAMP-d2 added to all wells except non-specific binding (NSB) wells (to which conjugate and lysis buffer was added).
(§3) Data was transformed to % Delta F as described in the manufacturer's guidelines and analyzed by 4-parameter logistic fit to determine EC50 values.

[2] = biological target: human GLP-1 receptor (hGLP-1R) (Homo sapiens, UniProt P43220); experiment: cAMP production (HTRF) in CHO cells expressing hGLP-1R; type: cell-based; set-up: expressed in transfected cells; details: for % Relative Potency Ratio: % GLP-1R activity relative to GLP-1 / % GlucR activity relative to glucagon
human GLP-1 receptor (hGLP-1R), sequence (P43220 24-463): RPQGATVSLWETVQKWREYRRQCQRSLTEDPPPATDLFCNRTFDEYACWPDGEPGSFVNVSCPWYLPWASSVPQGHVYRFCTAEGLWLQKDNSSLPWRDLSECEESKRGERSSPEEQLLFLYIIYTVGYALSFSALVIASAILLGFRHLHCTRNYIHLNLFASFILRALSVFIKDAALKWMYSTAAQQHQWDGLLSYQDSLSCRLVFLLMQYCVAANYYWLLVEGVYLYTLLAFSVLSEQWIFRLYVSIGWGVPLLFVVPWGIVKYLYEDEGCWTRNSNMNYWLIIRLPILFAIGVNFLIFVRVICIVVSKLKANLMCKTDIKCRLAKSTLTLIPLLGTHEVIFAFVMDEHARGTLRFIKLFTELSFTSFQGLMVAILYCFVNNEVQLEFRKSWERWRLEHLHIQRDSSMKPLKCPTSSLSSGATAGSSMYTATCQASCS
Procedure: as §1, §2, §3

[3] = Table 6, peptides modified at position 17, cAMP in CHO hGLP-1R cells, geometric mean, read-out: hGLP-1R EC50

Molecule	% Relative Potency Ratio [2]	EC50 [2, 3]	% Relative Potency Ratio ([2]; Table 6)	also measured
CC[C@H](C)[C@H](NC(=O)[C@H](Cc1c[nH]c2ccccc12)NC(=O)[C@H](CCCCNC(=O)CCOCCOCCNC(=O)CCOCCOCCNC(=O)CC[C@H](NC(=O)CC[C@H](NC(=O)CCCCCCCCCCCCCCCCCCC(=O)O)C(=O)O)C(=O)O)NC(=O)[C@@H](NC(=O)[C@H](Cc1ccccc1)NC(=O)[C@H](CC(=O)O)NC(=O)[C@H](CCC(N)=O)NC(=O)[C@H](C)NC(=O)[C@H](C)NC(=O)[C@H](CCC(N)=O)NC(=O)[C@H](CO)NC(=O)[C@H](CC(=O)O)NC(=O)[C@H](CC(C)C)NC(=O)[C@](C)(Cc1ccccc1)NC(=O)[C@H](CCCCN)NC(=O)[C@H](CO)NC(=O)[C@@H](NC(=O)[C@H](CC(=O)O)NC(=O)[C@H](CO)NC(=O)[C@@H](NC(=O)[C@](C)(Cc1ccccc1)NC(=O)[C@H](CO)NC(=O)CNC(=O)[C@H](Cc1c[nH]cn1)NC(=O)C(C)(C)NC(=O)[C@@H](N)Cc1c[nH]cn1)[C@@H](C)O)C(C)C)C(C)C)C(=O)N[C@@H](C)C(=O)N[C@@H](CC(N)=O)C(=O)N[C@H](C(N)=O)[C@@H](C)O [Peptide 355] (H-H[Aib]HGS[αMeF]TSDVSK[αMeF]LDSQAAQDFVK([PEG2-PEG2-γGlu-γGlu-C20 diacid])WIANT-NH2; N-terminus assumed)	2.2			EC50 ([1]; hGluc-R EC50 (pM), cAMP, CHO cells, 0.1% BSA): 478 pM; EC50 ([2]; hGLP-1R EC50 (pM)): 424 pM
CC(C)C[C@H](NC(=O)[C@H](Cc1c[nH]c2ccccc12)NC(=O)[C@H](CCCNC(=N)N)NC(=O)[C@@H](NC(=O)[C@H](Cc1ccccc1)NC(=O)[C@H](CC(=O)O)NC(=O)[C@H](CCC(N)=O)NC(=O)[C@H](C)NC(=O)[C@H](CCCNC(=N)N)NC(=O)[C@H](CCCCNC(=O)COCCOCCNC(=O)COCCOCCNC(=O)CC[C@H](NC(=O)CCCCCCCCCCCCCCCCC(=O)O)C(=O)O)NC(=O)[C@H](CO)NC(=O)[C@H](CC(=O)O)NC(=O)[C@H](CC(C)C)NC(=O)[C@](C)(Cc1ccccc1)NC(=O)[C@H](CCCCN)NC(=O)[C@H](CO)NC(=O)[C@@H](NC(=O)[C@H](CC(=O)O)NC(=O)[C@H](CO)NC(=O)[C@@H](NC(=O)[C@H](Cc1ccccc1)NC(=O)[C@@H](NC(=O)CNC(=O)[C@H](CCC(N)=O)NC(=O)C(C)(C)NC(=O)[C@@H](N)Cc1c[nH]cn1)[C@@H](C)O)[C@@H](C)O)C(C)C)C(C)C)C(=O)N[C@@H](CC(C)C)C(=O)NC(C)(C)C(=O)N[C@H](C(=O)NCC(=O)O)[C@@H](C)O [Peptide 30] (H-H[Aib]QGTFTSDVSK[αMeF]LDSK([AEEA-AEEA-γGlu-C18 diacid])RAQDFVRWLL[Aib]TG-OH; N-terminus assumed)		52.7 pM	8.8	EC50 ([1]; Table 6, peptides modified at position 17, cAMP in CHO hGCGR cells, read-out: hGluc-R EC50): 235 pM
CC[C@H](C)[C@H](NC(=O)[C@H](Cc1c[nH]c2ccccc12)NC(=O)[C@H](CCCCNC(=O)CC[C@H](NC(=O)CC[C@H](NC(=O)CCOCCOCCNC(=O)CC[C@H](NC(=O)CC[C@H](NC(=O)CCCCCCCCCCCCCCCCCCC(=O)O)C(=O)O)C(=O)O)C(=O)O)C(=O)O)NC(=O)[C@@H](NC(=O)[C@H](Cc1ccccc1)NC(=O)[C@H](CC(=O)O)NC(=O)[C@H](CCC(N)=O)NC(=O)[C@H](C)NC(=O)[C@H](C)NC(=O)[C@H](CCC(N)=O)NC(=O)[C@H](CO)NC(=O)[C@H](CC(=O)O)NC(=O)[C@H](CC(C)C)NC(=O)[C@](C)(Cc1ccccc1)NC(=O)[C@H](CCCCN)NC(=O)[C@H](CO)NC(=O)[C@@H](NC(=O)[C@H](CC(=O)O)NC(=O)[C@H](CO)NC(=O)[C@@H](NC(=O)[C@](C)(Cc1ccccc1)NC(=O)[C@H](CO)NC(=O)CNC(=O)[C@H](Cc1c[nH]cn1)NC(=O)C(C)(C)NC(=O)[C@@H](N)Cc1c[nH]cn1)[C@@H](C)O)C(C)C)C(C)C)C(=O)N[C@@H](C)C(=O)N[C@@H](CC(N)=O)C(=O)N[C@H](C(N)=O)[C@@H](C)O [Peptide 357]	1.2			
H(Aib)HGS(αMePhe)TSDK(O20C-O2OC-γE-γE-C20diacid)10SK(αMePhe)LDSRAAQD(αMePhe)VQ(Aib)IANT-amide [Peptide 391]	49.1			
CCCCCCCCCCCCCCCCCC(=O)N[C@@H](CCC(=O)N[C@@H](CCC(=O)NCCOCCOCCC(=O)NCCOCCOCCC(=O)NCCCC[C@H](NC(=O)[C@H](CO)NC(=O)[C@H](CC(=O)O)NC(=O)[C@H](CC(C)C)NC(=O)[C@](C)(Cc1ccccc1)NC(=O)[C@H](CCCCN)NC(=O)[C@H](CO)NC(=O)[C@@H](NC(=O)[C@H](CC(=O)O)NC(=O)[C@H](CO)NC(=O)[C@@H](NC(=O)[C@](C)(Cc1ccccc1)NC(=O)[C@H](CO)NC(=O)CNC(=O)[C@H](CCC(N)=O)NC(=O)C(C)(C)NC(=O)[C@@H](N)Cc1c[nH]cn1)[C@@H](C)O)C(C)C)C(=O)N[C@H](C(=O)N[C@@H](C)C(=O)N[C@@H](CCC(N)=O)C(=O)N[C@@H](CC(=O)O)C(=O)N[C@@](C)(Cc1ccccc1)C(=O)N[C@H](C(=O)N[C@@H](CCC(=O)O)C(=O)NC(C)(C)C(=O)N[C@@H](CC(C)C)C(=O)N[C@@H](CCC(=O)O)C(=O)N[C@@H](C)C(=O)NCC(=O)NCC(N)=O)C(C)C)C(C)(C)CCNC(=N)N)C(=O)O)C(=O)O [Peptide 74] (H-H[Aib]QGS[αMeF]TSDVSK[αMeF]LDSK([PEG2-PEG2-γGlu-γGlu-Stearoyl])[X1]AQD[αMeF]VE[Aib]LEAGG-NH2; N-terminus assumed)			11.8	
CC(C)C[C@H](NC(=O)[C@H](Cc1c[nH]c2ccccc12)NC(=O)[C@H](CCCNC(=N)N)NC(=O)[C@@H](NC(=O)[C@H](Cc1ccccc1)NC(=O)[C@H](CC(=O)O)NC(=O)[C@H](CCCNC(=N)N)NC(=O)[C@H](C)NC(=O)[C@H](CCCNC(=N)N)NC(=O)[C@H](CCCCNC(=O)CC[C@H](NC(=O)CC[C@H](NC(=O)COCCOCCNC(=O)COCCOCCNC(=O)CC[C@H](NC(=O)CC[C@H](NC(=O)CCCCCCCCCCCCCCCCC(=O)O)C(=O)O)C(=O)O)C(=O)O)C(=O)O)NC(=O)[C@H](CO)NC(=O)[C@H](CC(=O)O)NC(=O)[C@H](CC(C)C)NC(=O)[C@](C)(Cc1ccccc1)NC(=O)[C@H](CCCCN)NC(=O)[C@H](CO)NC(=O)[C@@H](NC(=O)[C@H](CC(=O)O)NC(=O)[C@H](CO)NC(=O)[C@@H](NC(=O)[C@H](Cc1ccccc1)NC(=O)[C@@H](NC(=O)CNC(=O)[C@H](CCC(N)=O)NC(=O)C(C)(C)NC(=O)[C@@H](N)Cc1c[nH]cn1)[C@@H](C)O)[C@@H](C)O)C(C)C)C(C)C)C(=O)N[C@@H](CC(C)C)C(=O)N[C@@H](CCC(=O)O)C(=O)NC(C)(C)C(=O)NCC(=O)O [Peptide 144] (H-H[Aib]QGTFTSDVSK[αMeF]LDSK([γGlu-γGlu-AEEA-AEEA-γGlu-γGlu-C18 diacid])RARDFVRWLLE[Aib]G-OH; N-terminus assumed)		45.2 pM	30.7	
CC(C)C[C@H](NC(=O)[C@H](Cc1c[nH]c2ccccc12)NC(=O)[C@H](CCC(N)=O)NC(=O)[C@@H](NC(=O)[C@H](Cc1ccccc1)NC(=O)[C@H](CC(=O)O)NC(=O)[C@H](CCC(N)=O)NC(=O)[C@H](C)NC(=O)[C@H](CCCNC(=N)N)NC(=O)[C@H](CCCCNC(=O)COCCOCCNC(=O)COCCOCCNC(=O)CC[C@H](NC(=O)CC[C@H](NC(=O)CCCCCCCCCCCCCCCCC(=O)O)C(=O)O)C(=O)O)NC(=O)[C@H](CO)NC(=O)[C@H](CC(=O)O)NC(=O)[C@H](CC(C)C)NC(=O)[C@](C)(Cc1ccccc1)NC(=O)[C@H](CCCCN)NC(=O)[C@H](CO)NC(=O)[C@@H](NC(=O)[C@H](CC(=O)O)NC(=O)[C@H](CO)NC(=O)[C@@H](NC(=O)[C@H](Cc1ccccc1)NC(=O)[C@@H](NC(=O)CNC(=O)[C@H](CCC(N)=O)NC(=O)C(C)(C)NC(=O)[C@@H](N)Cc1c[nH]cn1)[C@@H](C)O)[C@@H](C)O)C(C)C)C(C)C)C(=O)N[C@@H](CC(C)C)C(=O)NC(C)(C)C(=O)N[C@H](C(N)=O)[C@@H](C)O [Peptide 463] (H-H[Aib]QGTFTSDVSK[αMeF]LDSK([AEEA-AEEA-γGlu-γGlu-C18 diacid])RAQDFVQWLL[Aib]T-NH2; N-terminus assumed)		274 pM		
CC(C)C[C@H](NC(=O)[C@H](Cc1c[nH]c2ccccc12)NC(=O)[C@H](CCCNC(=N)N)NC(=O)[C@@H](NC(=O)[C@H](Cc1ccccc1)NC(=O)[C@H](CC(=O)O)NC(=O)[C@H](CCC(N)=O)NC(=O)[C@H](C)NC(=O)[C@H](CCCNC(=N)N)NC(=O)[C@H](CCCCNC(=O)COCCOCCNC(=O)COCCOCCNC(=O)CC[C@H](NC(=O)CCCCCCCCCCCCCCCCCCC(=O)O)C(=O)O)NC(=O)[C@@H](NC(=O)[C@H](CC(=O)O)NC(=O)[C@H](CC(C)C)NC(=O)[C@](C)(Cc1ccccc1)NC(=O)[C@H](CCCCN)NC(=O)[C@H](CO)NC(=O)[C@@H](NC(=O)[C@H](CC(=O)O)NC(=O)[C@H](CO)NC(=O)[C@@H](NC(=O)[C@H](Cc1ccccc1)NC(=O)[C@@H](NC(=O)CNC(=O)[C@H](CCC(N)=O)NC(=O)C(C)(C)NC(=O)[C@@H](N)Cc1c[nH]cn1)[C@@H](C)O)[C@@H](C)O)C(C)C)[C@@H](C)O)C(C)C)C(=O)N[C@@H](CCC(=O)O)C(=O)N[C@@H](C)C(=O)NC(C)(C)C(=O)NCC(=O)O [Peptide 407]			4.4	
